Data from patent US20230129485A1, “SYSTEM AND METHOD FOR DETERMINING MATERIAL PROPERTIES OF MOLECULAR SYSTEMS FROM AN AB-INITIO PARAMETERIZED FORCE-FIELD” (InterX, Inc., priority 2021, published 2023).

Columns and labels:
[1] = Free energy of hydration by COSMO implicit solvent model (MolPro ver. 2012); conditions: absolute error vs Exp (hydration)
Description: (§1) Due to unavailability of free energy data for the original COSMO model, the free energies of solvation for the molecule dataset are calculated using MolPro ver. […] The comparisons to other implicit solvent models such as SMD, PCM and COSMO-RS are limited to the overlap of the molecules computed using QM-parameterized force field model. The free energies of hydration as predicted by these implicit solvent models (SMD, PCM) were received.

[2] = Free energy of hydration predicted with the QM-parameterized force field model (ARROW FF), classical MD and PIMD simulation in a water box; conditions: for water Arrow MD Error / water Arrow PIMD8 Error: Table 3; for water Arrow MD Error: absolute error of MD hydration free energy vs experiment; for water Arrow PIMD8 Error: absolute error of PIMD8 hydration free energy vs experiment; for Arrow PIMD8 Error: absolute error vs Exp (hydration)
Excerpt: For example, the example QM-parameterized force-field molecular simulation process 400 can use Bennett Acceptance Ratio (BAR) to compute the free energy of hydration/solvation of the molecule in water or any other solvent. In some implementations, the analysis of the molecular dynamics simulations includes analysis, predication, and visualization of ensemble properties of atoms/molecules from atomic and molecular trajectories using the optimized parameters of the QM-parameterized force field model (i.e., the quantum mechanics rule-based reasoning technique) and the QM-parameterized force field model.
In some simulations of the QM-parameterized force field molecular simulation process, the molecules were placed in a water or cyclohexane box of size 32×32×32 Å3. Particle-Mesh Ewald (PME) algorithm was used to compute the electrostatic interactions. A 32×32×32 grid mesh and 5th power spline interpolation order can be used to compute the inverse PME sum. 9 Å cutoffs were used to compute the direct PME sum as well as the exchange and dispersion interactions. Bulk corrections were applied to account for distance cut-off of dispersion interactions. Solvation free energies were computed by decoupling the interactions between the solute and the solvent molecules. Electrostatic, exchange-repulsion and dispersion interactions were switched off simultaneously using a lambda-dependent scaling (a scaling factor power=2 was used) and a soft-coring algorithm (maximal soft-coring radius=1.5 Å, soft-coring radius scaling factor power=1). 15 lambda points unequally spaced (X=0, 0.05, 0.1, 0.2, 0.3, 0.4, 0.5, 0.6, 0.7, 0.75, 0.8, 0.85, 0.9, 0.95, 1.0) were used to decouple the solute-solvent intermolecular interactions.
In some simulations of the QM-parameterized force field molecular simulation process, energy minimization (10,000 steps) using the steepest descent algorithm was initially performed on all the simulation systems. This was followed by a 50 ps equilibration and 1 ns production runs in the isothermal-isobaric ensemble (NPT). […] Pressure was maintained at 1 atm using a MTTK barostat (relaxation time=5 ps). A Multiple Time Step (MTS) algorithm was used to integrate the equations of motion both for the classical and path-integral runs. […] The calculations were performed using the QM-parameterized force field model.
Using the QM-parameterized force field model, the QM-parameterized force field device can compute or predict the solvation free energies using both the Bennett acceptance ratio (BAR) and thermodynamic integration (TI) method with <dH/dλ> values interpolated by cubic splines. […] FIG. 7A illustrates a <dH/dλ> dependence for desolvation of Anthracene in water. FIG. 7B illustrates accumulated statistical errors for TI calculations of AG desolvation of Anthracene in water.

[3] = Table 3; free energy of hydration, experimental; cited from earlier work
[4] = Free energy of hydration by Polarizable Continuum Model (PCM); conditions: absolute error vs Exp (hydration)
Description: as §1

[5] = Free energy of hydration by COSMO-RS
Description: as §1

[6] = implicit solvent model, values received; cited from earlier work
[7] = Free energy of hydration by Solvation Model Dielectric (SMD) implicit solvent model; conditions: absolute error vs Exp (hydration)
Description: as §1

[8] = implicit solvent model, values received; cited from earlier work; remark: listed apart in the source
[9] = CHEX/H2O partition coefficient (log D) predicted with the QM-parameterized force field model (ARROW FF)
Excerpt: In some simulations, the example QM-parameterized force-field molecular simulation process includes using the functional form of the bonded interactions, with force constants and equilibrium values fitted to QM energies at the MP2/aug-cc-pVTZ level of theory. In some simulations, solvents of water and cyclohexane are selected. Cyclohexane (CHEX) is nonpolar and equilibrates relatively quickly. Reliable experimental data for both CHEX solvation free energies, as well as for the CHEX/H2O partition coefficients are used in these simulations.
In some example simulations, solutes containing neutral chemical functional groups, for example carboxylic acids, alkanes, alkenes, aromatics, aldehydes, ketones, alcohols, amides, esters, thiols, sulfides, disulfides and heterocycles, are used. The simulations were performed independently by four groups using their own respective computational resources and architectures, and then averaged. FIGS. 9A-9C show solvation and hydration free energies predictions of various solutes, using the QM-parameterized force field model, in some embodiments.
The straight line is a line of agreement between experimental and simulated/predicted values, and the gray bar is the range or chemical accuracy. […] The molecules here are a subset of those in a) because only those with experimental values for CHEX solvation can be included.

Row | SMILES | COSMO/Molpro Error [1] [kcal/mol] | water Arrow MD Error [2] [kcal/mol] | water Arrow PIMD8 Error [2] [kcal/mol] | Arrow PIMD8 Error [2] [kcal/mol] | water Exp (hydration) [3] [kcal/mol] | PCM Error [4] [kcal/mol] | COSMO-RS error [5] [kcal/mol] | SMD free energy of hydration [6] [kcal/mol] | SMD Error [7] [kcal/mol] | PCM free energy of hydration [8] [kcal/mol] | log D Arrow MD Error [9] | log D Arrow PIMD Error [9] | logD Arrow MD Error [9] | logD Arrow PIMD Error [9]
1 | c1cc2ccc3cccc4ccc(c1)c2c34 [pyrene] | 1.32 | 0.45 | 0.01 | 0.01 | -4.52 |  |  |  |  |  |  |  |  | 
2 | C=C [Ethene] | 2.95 | 0.29 | 0.19 | 0.19 | 1.28 | 2.08 | 0.55 | 1.40 | 0.12 | -0.80 |  |  |  | 
3 | c1ccc2cc3cc4ccccc4cc3cc2c1 [tetracene] | 1.43 | 0.39 | 0.44 | 0.44 | -5.5 |  |  |  |  |  |  |  |  | 
4 | CCCC(=O)O [butyricacid] | 2.19 | 0.25 | 0.40 | 0.40 | -6.35 | 2.05 | 0.11 | -5.40 | 0.95 | -4.30 |  |  |  | 
5 | CCOCC [DiethylEther] | 2.00 | 0.95 | 0.10 | 0.10 | -1.75 | 0.15 |  | -1.20 | 0.55 | -1.90 |  |  |  | 
6 | c1ccc2c(c1)ccc1ccccc12 [phenanthrene] | 1.97 | 0.35 | 0.09 | 0.09 | -3.88 |  |  |  |  |  |  |  |  | 
7 | CCCOC [MethylPropylEther] | 3.19 | 0.66 | 0.00 | 0.00 | -1.66 | 0.14 |  | -0.50 | 1.16 | -1.80 |  |  |  | 
8 | C1CCCCCC1 [Cycloheptane] | 1.32 | 0.67 | 0.12 | 0.12 | 0.79 |  |  |  |  |  |  |  |  | 
9 | CC(=O)N(C)C [DiMethylAcetamide] | 2.31 |  |  |  |  |  | 0.37 |  |  |  |  |  |  | 
10 | CCS [EthaneThiol] | 2.70 | 0.94 | 0.43 | 0.43 | -1.24 | 0.86 |  | -1.00 | 0.24 | -2.10 |  |  |  | 
11 | c1ccc(-c2ccccc2)cc1 [Biphenyl] | 2.64 | 1.17 | 0.13 | 0.13 | -2.66 |  | 0.31 |  |  |  |  |  |  | 
12 | C=CC=C [Buta-13-diene] | 3.28 | 0.31 | 0.35 | 0.35 | 0.61 | 1.91 | 0.47 | 0.90 | 0.29 | -1.30 |  |  |  | 
13 | CN [methylamine] | 1.24 | 0.49 | 0.16 | 0.16 | -4.55 |  | 0.26 |  |  |  |  |  |  | 
14 | CC(C)(C)C [NeoPentane] | 3.25 | 1.05 | 0.12 | 0.12 | 2.50 | 2.80 |  | 2.20 | 0.30 | -0.30 |  |  |  | 
15 | CCCC=O [buytyraldehyde] | 4.47 | 0.61 | 0.07 | 0.07 | -3.18 | 0.52 | 0.07 | -3.00 | 0.18 | -3.70 |  |  |  | 
16 | C=CCCC [pent-1-ene] | 3.57 | 0.59 | 0.25 | 0.25 | 1.68 | 2.48 | 0.56 | 1.40 | 0.28 | -0.80 |  |  |  | 
17 | Cc1ccc(O)cc1 [p-cresol] |  |  |  |  |  |  |  |  |  |  | 0.73 | 0.11 | 0.73 | 0.11
18 | CC(C)(C)O [2-Methyl-2-Propanol] | 1.31 | 0.85 | 0.35 | 0.35 |  | 1.51 | 0.10 |  | 0.71 |  |  |  |  | 
19 | OC1CCCCC1 [Cyclohexanol] | 1.03 | 1.09 | 0.34 | 0.34 | -5.47 |  | 0.33 |  |  |  |  |  |  | 
20 | C1CCCC1 [Cyclopentane] |  | 0.71 | 0.12 |  | 1.20 |  |  |  |  |  |  |  |  | 
21 | CCSCC [DiEthylSulfide] | 3.37 | 0.89 | 0.12 | 0.12 | -1.43 | 0.57 |  | -0.20 | 1.23 | -2.00 |  |  |  | 
